“Also recorded” adds a separate entry of the source. Structures can show the parent of a compound that is named as a salt. Where two headings read alike, the source gives them in different places. One block for each compound: values may come before it.
Key:
[1] = Surface normalized dissolution of ASD tablets (release, limit of congruency); format: physicochemical; conditions: for limit of congruency (LoC) of ATZ-PVPVA ASDs: ASD containing 5% w/w of the plasticizer; for increase in LoC of ATZ versus binary ASD / normalized release rate of drug and polymer versus neat PVPVA: ATZ-PVPVA ASD; for limit of congruency (LoC) of LED-PVPVA ASDs: ASD containing 10% w/w of the plasticizer; for release of LED / total release of LED: LED 10% DL; for increase in LoC of LED versus binary ASD: LED-PVPVA ASD; for dissolution rate of PVPVA containing plasticizer versus neat PVPVA: PVPVA with 10% w/w plasticizer, no drug; for normalized release rate of drug and polymer versus neat PVPVA: ATZ 10 DL+GTA, ATZ 25DL+GTB; for lag time in the release profile: ATZ-PVPVA ASD at the LoC (20% DL TEC, 25% DL TEAC and TBAC)
Procedure: All dissolution experiments were conducted in 50 mM phosphate buffer pH 6.8 prepared by dissolving 3.52 g of sodium phosphate monobasic monohydrate and 3.48 g of sodium phosphate dibasic anhydrous to 1L with Milli-Q water. The pH was adjusted to pH 6.8 if needed using HCl or NaOH.
Surface normalized dissolution was employed to evaluate the release performance of the ASDs and to calculate the normalized release rate. A Hanson Vision G2 dissolution tester with a Vision heater (Teledyne Hanson Chatsworth, CA) was utilized. A tablet was prepared immediately prior to the dissolution test by compressing 100 mg of ASD in an 8 mm die at 2 500 psi for 60 seconds yielding a tablet surface are of 50 mm^2. The temperature was maintained at 37° C., the rotation speed was 100 rpm, and the dissolution medium was 50 mM phosphate buffer pH 6.8 degassed and pre-equilibrated at 37° C. 100 to 200 μl of sample was withdrawn every 5 min for the initial 20 minutes, then every 10 minutes until 60 minutes and finally at 75, 90 and 120 minutes. The medium was replenished after each sample withdrawal to maintain a constant volume.
The concentration of API and polymer during the dissolution was assessed by high performance liquid chromatography (HPLC) using an Agilent 1100 system (Agilent Technologies, Santa Clara, Calif.). An Ascentis® Express C18 10 cm×3 mm with 2.7 μm particle size column (Sigma-Aldrich St. Louis, Mo.) was employed for separation of ATZ, RTV, and LED. […] For ATZ and LED, the mobile phase was aqueous TFA 0.1% v/v:acetonitrile (ACN) 6:4 v/v at a flow rate of 0.5 ml/min, injection volume 10 detection wavelength (X.) 210 nm, and column temperature 40° C. For RTV, the mobile phase was aqueous TFA 0.1% v/v:ACN 6:4 v/v, flow rate 0.5 ml/min, injection volume 10 detection λ 241 nm and column temperature 40° C.
The surface normalized dissolution rate (R) was calculated based on the mg released versus time profile. The slope from cumulative mg release vs time represents the release rate (k). To normalize, k was divided by the tablet surface area (S, 0.5 cm^2) times the fraction of the component (x) (Equation 1)

[2] = Dynamic vapor sorption (DVS), isothermal water sorption; format: physicochemical; conditions: for effect of plasticizer on polymer (PVPVA) water sorption: PVPVA containing GTB or TBC
Procedure: The isothermal water sorption at 37° C. was measured for selected ASDs using a DVS-Advantage device (Surface Measurement System Ltd Allentown, Pa.). Around 5 mg of sample was first dried at 0% relative humidity (RH) and 37° C. for one hour followed by exposure to 95% RH and 37° C. for at least 8 hours. Percent of water sorbed and derivative of percent mass over time (dm/dT %) was analyzed.

[3] = literature; cited from earlier work
[4] = API:plasticizer 8:1 miscibility and Tg depression by DSC; format: physicochemical
Procedure: API:plasticizer at a ratio 8:1 was prepared by rotary evaporation to evaluate miscibility and Tg depression produced by the plasticizer. 3 to 5 mg was accurately weighed in an aluminum pan with a hermetic lid with a pinhole. Since the Tg was evaluated after only 1 hour of vacuum drying to avoid crystallization, a second drying was done by employing an isothermal hold at 20° C. in the DSC with nitrogen flow for at least 20 minutes. Then, the sample was cooled to −60 and heated at 2° C./min to 210° C. with a modulation period +/−1° C. every 60 seconds.

[5] = Glass transition temperature (Tg) by DSC; format: physicochemical; conditions: for Tg of the API: neat API (dry Tg); for reduction of ASD Tg on increasing plasticizer from 5 to 10% w/w: LED 10% DL
Procedure: Glass transition temperature and plasticizer-API miscibility was determined using a TA Q2000 differential scanning calorimeter (DSC) (TA Instruments, New Castle, DE) with a refrigerated cooling accessory (RCS) using N2 as the purge gas at a flow of 50 ml/min. For Tg determination, around 5 mg of sample was accurately weighed into an aluminum pan with a Tzero lid and subject to a cool-heat-cool cycle. Samples were cooled at -20° C. and heated up to 220° C. The heating was done in modulated mode at a heating rate of 2° C/min with a modulation period of +/−1° C. every 60 seconds. The midpoint temperature of the heat capacity change in the thermogram from the second heating cycle scan was taken as the Tg. The DSC was calibrated with indium at the appropriate heating rate.

[6] = 20% DL ATZ ternary ASD, 5% w/w plasticizer, 95% RH/37° C.

limit of congruency (LoC) of ATZ-PVPVA ASDs [1]: 7.5 % DL | increase in LoC of ATZ versus binary ASD ([1]; 5% w/w plasticizer): 1.5 fold
SMILES: OCC(O)CO [glycerol, Glycerol]

release from RTV-PVPVA ASD ([1]; 30% DL, 5% w/w plasticizer): Complete release | release from RTV-PVPVA ASD ([1]; 35% DL, 5% w/w plasticizer): not at 35% DL | limit of congruency (LoC) of ATZ-PVPVA ASDs [1]: 25 % DL | limit of congruency (LoC) of LED-PVPVA ASDs [1]: 15 % DL | increase in LoC of ATZ versus binary ASD ([1]; 5% w/w plasticizer): 5 fold | release of LED ([1]; 10% w/w plasticizer): complete drug release | increase in LoC of LED versus binary ASD ([1]; 10% w/w plasticizer): 3 fold | water uptake versus binary 20% DL ATZ ASD [2, 6]: slight increase in water uptake | water uptake at 10, 20 and 30% DL ([2]; ATZ ternary ASD containing 5% w/w TBC): similar | effect of plasticizer on polymer (PVPVA) water sorption [2]: dramatically reduced
SMILES: CCCCOC(=O)CC(O)(CC(=O)OCCCC)C(=O)OCCCC [TBC, Tri-n-butyl citrate]
dissolution rate of PVPVA containing plasticizer versus neat PVPVA [1]: as much as twice; also recorded: faster dissolution rate

limit of congruency (LoC) of ATZ-PVPVA ASDs [1]: 7.5 % DL
SMILES: CC(=O)OCC(CO)OC(C)=O (stereo not shown) [GDA, glycerol diacetate]

limit of congruency (LoC) of ATZ-PVPVA ASDs [1]: 10 % DL | normalized release rate of drug and polymer versus neat PVPVA ([1]; 5% w/w plasticizer): faster than that of neat PVPVA
SMILES: CC(=O)OCC(COC(C)=O)OC(C)=O [GTA, Glycerol triacetate]

SMILES: CCCCOC(=O)CC(CC(=O)OCCCC)(OC(C)=O)C(=O)OCCCC [TBAC, Tributyl-o-acetylcitrate]
limit of congruency (LoC) of ATZ-PVPVA ASDs [1]: 25 % DL | lag time in the release profile ([1]; 5% w/w plasticizer): around 20 min

Tg ([4]; ATZ:plasticizer 8:1 amorphous mix): 105.5 °C
SMILES: COC(=O)N[C@H](C(=O)N[C@@H](Cc1ccccc1)[C@@H](O)CN(Cc1ccc(-c2ccccn2)cc1)NC(=O)[C@@H](NC(=O)OC)C(C)(C)C)C(C)(C)C [ATZ, atazanavir]
limit of congruency (LoC) of PVPVA-based ASD, reported [3]: ~5 % DL

increase in LoC of RTV versus binary ASD ([1]; RTV-PVPVA ASD with plasticizers GTB and TBC): 1.2 fold | Tg of the API [5]: 50 °C
SMILES: CC(C)c1nc(CN(C)C(=O)N[C@H](C(=O)N[C@@H](Cc2ccccc2)C[C@H](O)[C@H](Cc2ccccc2)NC(=O)OCc2cncs2)C(C)C)cs1 [RTV, ritonavir, reference compound]
limit of congruency (LoC) of PVPVA-based ASD, reported [3]: 25 % DL

SMILES: Clc1ccc(COC(Cn2ccnc2)c2ccc(Cl)cc2Cl)c(Cl)c1 (stereo not shown) [miconazole]
limit of congruency (LoC) of PVPVA-based ASD, reported [3]: 25 % DL

release from RTV-PVPVA ASD ([1]; 30% DL, 5% w/w plasticizer): Complete release | release from RTV-PVPVA ASD ([1]; 35% DL, 5% w/w plasticizer): not at 35% DL | limit of congruency (LoC) of ATZ-PVPVA ASDs [1]: 25 % DL | limit of congruency (LoC) of LED-PVPVA ASDs [1]: 20 % DL | increase in LoC of ATZ versus binary ASD ([1]; 5% w/w plasticizer): 5 fold | normalized release rate of drug and polymer versus neat PVPVA ([1]; 5% w/w plasticizer): faster than that of neat PVPVA | release of LED ([1]; 10% w/w plasticizer): complete drug release | increase in LoC of LED versus binary ASD ([1]; 10% w/w plasticizer): 4 fold | water uptake versus binary 20% DL ATZ ASD [2, 6]: more prominent increase of water uptake | effect of plasticizer on polymer (PVPVA) water sorption [2]: dramatically reduced
SMILES: CCCC(=O)OCC(COC(=O)CCC)OC(=O)CCC [GTB, Glycerol tributyrate]
dissolution rate of PVPVA containing plasticizer versus neat PVPVA [1]: as much as twice; also recorded: faster dissolution rate

SMILES: CCOC(=O)CC(CC(=O)OCC)(OC(C)=O)C(=O)OCC [TEAC, triethyl acetyl citrate]
limit of congruency (LoC) of ATZ-PVPVA ASDs [1]: 25 % DL | limit of congruency (LoC) of LED-PVPVA ASDs [1]: 15 % DL | lag time in the release profile ([1]; 5% w/w plasticizer): around 20 min | total release of LED ([1]; 5% w/w plasticizer): 20% | release of LED ([1]; 10% w/w plasticizer): complete drug release | water uptake versus binary 20% DL ATZ ASD [2]: slight increase in water uptake | reduction of ASD Tg on increasing plasticizer from 5 to 10% w/w [5]: 14 °C

limit of congruency (LoC) of ATZ-PVPVA ASDs [1]: 20 % DL | lag time in the release profile ([1]; 5% w/w plasticizer): around 20 min | total release of LED ([1]; 5% w/w plasticizer): 12% | reduction of ASD Tg on increasing plasticizer from 5 to 10% w/w [5]: 10 °C
SMILES: CCOC(=O)CC(O)(CC(=O)OCC)C(=O)OCC [TEC, triethyl citrate]
water uptake versus binary 20% DL ATZ ASD [2, 6]: very similar water uptake as the binary ASD

Tg of the API [5]: 160 °C | Tg ([4]; LED:plasticizer 8:1 amorphous mix): 162 °C
SMILES: COC(=O)N[C@H](C(=O)N1CC2(CC2)C[C@H]1c1nc(-c2ccc3c(c2)C(F)(F)c2cc(-c4ccc5[nH]c([C@@H]6[C@H]7CC[C@H](C7)N6C(=O)[C@@H](NC(=O)OC)C(C)C)nc5c4)ccc2-3)c[nH]1)C(C)C [LED, ledipasvir]
limit of congruency (LoC) of PVPVA-based ASD, reported [3]: ~5 % DL

limit of congruency (LoC) of ATZ-PVPVA ASDs [1]: 7.5 % DL | release of LED ([1]; 5% w/w plasticizer): complete release
SMILES: O=C(O)CC(O)(CC(=O)O)C(=O)O [citric acid]

From patent US20230138752A1, “PLASTICIZERS TO IMPROVE RELEASE PERFORMANCE OF AMORPHOUS SOLID DISPERSIONS” (Purdue Research Foundation, priority 2021, published 2023)
